Data set [1] deals with Puccinia recondita. Put plainly: Example IX-A: in vivo preventive test on Puccinia recondita (brown rust on wheat). The settings on record: 264 h, compounds of formula IX, 500 ppm of active ingredient, wheat plants, preventive spray, evaluated 11 days after inoculation, read-out: efficacy. The method in brief: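 Young wheat plants sprayed with compound in DMSO/acetone/Tween 80 diluted in water, inoculated 24 h later with spore suspension. Incubated 24 h at 20 °C, 100% RH, then 10 days at 20 °C, 70-80% RH. Efficacy scored 11 days post-inoculation, 0% equal to solvent-treated controls, 100% no disease.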

Data set [2] deals with Septoria tritici. The data set can be described thus: Example IX-B: in vivo preventive test on Septoria tritici (leaf spot on wheat). The settings on record: Zymoseptoria tritici, 576 h; compounds of formula IX; 500 ppm of active ingredient; wheat plants, preventive spray; evaluated 24 days after inoculation; read-out: efficacy. In outline:
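Wheat seedlings sprayed preventively with compound dissolved in DMSO/acetone/Tween 80 and diluted in water; solvent-only controls. Spore suspension of S. tritici sprayed 24 h later; 72 h at 18 °C/100% RH, then 21 days at 20 °C/90% RH. Efficacy scored 24 days post-inoculation, 0% = control, 100% = no disease.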

Data set [3] deals with Sphaerotheca fuliginea. The data set can be described thus: Example IX-C: in vivo preventive test on Sphaerotheca fuliginea (powdery mildew on cucurbits). The settings on record: Podosphaera fuliginea, 360 h; compounds of formula IX; 500 ppm of active ingredient; gherkin plants, preventive spray; evaluated 15 days after inoculation; read-out: efficacy. The method in brief: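 Young gherkin plants sprayed with compound in DMSO/acetone/Tween 80 diluted in water, then inoculated 24 h later with Sphaerotheca fuliginea spores. Kept 72 h at 18 °C/100% RH, then 12 days at 20 °C/70-80% RH; efficacy scored 15 days post-inoculation, 0% = control, 100% = no disease.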

Data set [4] is described as follows: Log P by HPLC on reversed phase columns (EEC directive 79/831 Annex V.A8; methods [a], [b], [c]). The data set is classed as physicochemical. The settings on record: reversed phase HPLC column; method [a]: LC-UV, acidic range, 0.1% formic acid in water and acetonitrile as eluent (linear gradient from 10% to 95% acetonitrile). The method in brief: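 Log P derived from retention times, interpolated linearly between bracketing straight-chain alkan-2-ones (3–16 carbons) of known Log P. Eluents ran acetonitrile 10% to 95% against water with 0.1% formic acid ([a], acidic), 0.001 M ammonium acetate ([b], neutral) or 0.1% phosphoric acid ([c], acidic); UV read-out.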

Data set [5] has as its system Uromyces appendiculatus. The data set can be described thus: Example IX-D: in vivo preventive test on Uromyces appendiculatus (bean rust). The settings on record: 264 h, compounds of formula IX, 500 ppm of active ingredient, bean plants, preventive spray, evaluated 11 days after inoculation, read-out: efficacy. As to the method: Example IX-D: In Vivo Preventive Test on Uromyces Appendiculatus (Bean Rust)
The active ingredients are made soluble and homogenized in a mixture of Dimethyl sulfoxide/Acetone/Tween® 80 and then diluted in water to the desired concentration.
The young plants of bean are treated by spraying the active ingredient prepared as described above. Control plants are treated only with an aqueous solution of Acetone/Dimethyl sulfoxide/Tween® 80.
After 24 hours, the plants are contaminated by spraying the leaves with an aqueous suspension of Uromyces appendiculatus spores. The contaminated bean plants are incubated for 24 hours at 20° C. and at 100% relative humidity and then for 10 days at 20° C. and at 70-80% relative humidity.
The test is evaluated 11 days after the inoculation. 0% means an efficacy which corresponds to that of the control plants while an efficacy of 100% means that no disease is observed.
control plants while an efficacy of 100% means that no disease was observed.

The results in this text go back to patent US20200031778A1, “NOVEL 5-SUBSTITUTED IMIDAZOLYLMETHYL DERIVATIVES” (Bayer CropScience Aktiengesellschaft, priority 2016, published 2020).

For `O=C(Cn1cncc1Cl)c1ccc(Oc2ccc(OC(F)(F)F)cc2)cc1Cl` [IX-09], the pest or weed control at 500 ppm in data set [1], in data set [2], in data set [3] and in data set [5] was 90 to 100% throughout. Also, the chromatographic logP in data set [4] is 3.37.

On to `N#Cc1cncn1CC(=O)c1ccc(Oc2ccc(Br)cc2)cc1Cl` [IX-58, 1-[4-(4-bromophenoxy)-2-chloro-phenyl]-2-(5-cyanoimidazol-1-yl)ethanone], for which the pest or weed control at 500 ppm in data set [1], in data set [2], in data set [3] and in data set [5] was 90 to 100% throughout. The chromatographic logP in data set [4] was 3.55.

With `O=C(Cn1cncc1C(F)(F)F)c1ccc(Oc2ccc(Cl)cc2)cc1Cl` [IX-57], the pest or weed control at 500 ppm was in the range of 90 to 100% in data set [1], 90 to 100% in data set [2], 90 to 100% in data set [3] and 80 to 89% in data set [5]. The compound also displayed a chromatographic logP in data set [4] of 4.03.

Take `N#Cc1cncn1CC(=O)c1cnc(Oc2ccc(C(F)(F)F)cc2)cc1Br` [IX-115]: the pest or weed control at 500 ppm in data set [1], in data set [2], in data set [3] and in data set [5] was 90 to 100% each time. Besides, the chromatographic logP in data set [4] turned out to be 3.37.

`O=C(Cn1cncc1Cl)c1ccc(Oc2ccc(Cl)cc2)cc1Cl` [IX-04]: the pest or weed control at 500 ppm in data set [1], in data set [2], in data set [3] and in data set [5] was 90 to 100% each time. The same compound showed a chromatographic logP in data set [4] of 3.17.

As for `O=C(Cn1cncc1Cl)c1ccc(Oc2ccc(I)cc2)cc1Cl` [IX-13], the pest or weed control at 500 ppm in data set [1], in data set [2], in data set [3] and in data set [5] was 90 to 100% in each case. For the same compound, in data set [4], the chromatographic logP was determined as 3.41.

Take `O=C(Cn1cncc1Br)c1ccc(Oc2ccc(Cl)cc2)cc1Cl` [IX-18]: the pest or weed control at 500 ppm in data set [1], in data set [2], in data set [3] and in data set [5] was 90 to 100% throughout. This compound yielded a chromatographic logP in data set [4] of 3.07.

As for `O=C(Cn1cncc1Cl)c1ccc(Oc2ccc(F)cc2)cc1Cl` [IX-08], the pest or weed control at 500 ppm in data set [1] fell in the range of 80 to 89%; in data set [2], 90 to 100%; in data set [3], 90 to 100%; in data set [5], 90 to 100%. Further, in data set [4], the chromatographic logP is 2.73.

As to `N#Cc1cncn1CC(=O)c1ccc(Oc2ccc(Cl)cc2)cc1C(F)(F)F` [IX-54], the pest or weed control at 500 ppm in data set [1] lay in the range of 90 to 100%; in data set [2], 90 to 100%; in data set [3] it was 90 to 100%; in data set [5] it was 70 to 79%. The chromatographic logP in data set [4] amounted to 3.55.

Take `O=C(Cn1cncc1F)c1cnc(Oc2ccc(Cl)cc2F)cc1C(F)(F)F` [IX-95]: the pest or weed control at 500 ppm was in the range of 70 to 79% in data set [1], 70 to 79% in data set [2], 90 to 100% in data set [3] and 90 to 100% in data set [5]. The compound also gave a chromatographic logP in data set [4] of 2.84.

Turning to `O=C(Cn1cncc1Br)c1ccc(Oc2ccc(Br)cc2)cc1Cl` [IX-39, 1-[4-(4-bromophenoxy)-2-chloro-phenyl]-2-(5-bromoimidazol-1-yl)ethanone], the pest or weed control at 500 ppm in data set [1], in data set [2], in data set [3] and in data set [5] was 90 to 100% in each case. For the same compound, the chromatographic logP in data set [4] was determined as 3.1.

Turning to `N#Cc1cncn1CC(=O)c1ccc(Oc2ccc(Cl)cc2)cc1F` [IX-64], the pest or weed control at 500 ppm in data set [1], in data set [2], in data set [3] and in data set [5] was 90 to 100% throughout. The chromatographic logP in data set [4] turned out to be 3.27.

Take `O=C(Cn1cncc1F)c1ccc(Oc2ccc(Cl)cc2)cc1Cl` [IX-65]: the pest or weed control at 500 ppm in data set [1], in data set [2], in data set [3] and in data set [5] was 90 to 100% each time. The compound also had a chromatographic logP in data set [4] of 2.52.

With `O=C(Cn1cncc1F)c1ccc(Oc2ccc(Br)cc2)nc1C(F)(F)F` [IX-86], the pest or weed control at 500 ppm in data set [1], in data set [2], in data set [3] and in data set [5] was 90 to 100% throughout. The compound further displayed a chromatographic logP in data set [4] of 2.76.

`N#Cc1cncn1CC(=O)c1ccc(Oc2ccc(Br)cc2)cc1C(F)(F)F` [IX-59]: the pest or weed control at 500 ppm in data set [1], in data set [2], in data set [3] and in data set [5] was 90 to 100% throughout. In data set [4], this compound gave a chromatographic logP of 3.65.

Take `O=C(Cn1cncc1F)c1cnc(Oc2ccc(Cl)cc2)cc1C(F)(F)F` [IX-104]: the pest or weed control at 500 ppm in data set [1], in data set [2], in data set [3] and in data set [5] was 90 to 100% each time. Besides, the chromatographic logP in data set [4] was 2.5.

In the case of `Cc1ccc(Oc2ccc(C(=O)Cn3cncc3Cl)c(Cl)c2)cc1` [IX-07], the pest or weed control at 500 ppm in data set [1], in data set [2], in data set [3] and in data set [5] was 90 to 100% throughout. In addition, the chromatographic logP in data set [4] was 3.09.

As to `O=C(Cn1cncc1Cl)c1ccc(Oc2ccc(I)cc2)cc1F` [IX-47], the pest or weed control at 500 ppm in data set [1], in data set [2], in data set [3] and in data set [5] was 90 to 100% in each case. In addition, in data set [4], the chromatographic logP worked out at 3.19.

In the case of `N#Cc1cncn1CC(=O)c1cnc(Oc2ccc(Cl)cc2)cc1Br` [IX-92], the pest or weed control at 500 ppm in data set [1] lay within 80 to 89%; in data set [2], 90 to 100%; in data set [3], 90 to 100%; in data set [5], 80 to 89%. This compound came in with a chromatographic logP in data set [4] of 3.08.

For the compound `O=C(Cn1cncc1Cl)c1ccc(Oc2ccc(Cl)cn2)cc1Cl` [IX-05], the pest or weed control at 500 ppm in data set [1] lay within 70 to 79%; in data set [2], 80 to 89%; in data set [3] it was 90 to 100%; in data set [5] it was 80 to 89%. In data set [4], this compound registered a chromatographic logP of 2.53.

Turning to `O=C(Cn1cncc1F)c1ccc(Oc2ccc(C(F)F)cc2)nc1Cl` [IX-84], the pest or weed control at 500 ppm is 80 to 89% in data set [1], 90 to 100% in data set [2], 90 to 100% in data set [3] and 90 to 100% in data set [5]. Moreover, the chromatographic logP in data set [4] was found to be 2.12.

As for `O=C(Cn1cncc1F)c1cnc(Oc2ccc(Cl)cc2)cc1Cl` [IX-94], the pest or weed control at 500 ppm fell in the range of 80 to 89% in data set [1], 90 to 100% in data set [2], 90 to 100% in data set [3] and 90 to 100% in data set [5]. This compound displayed a chromatographic logP in data set [4] of 2.32.
